Square brackets hold non-standard residues; d marks the D form. Ends that are not written are not given here. Peptide text beside a SMILES is read from it. 2Thi = N[C@@H](Cc1cccs1)C(=O)O; d2Thi = N[C@H](Cc1cccs1)C(=O)O
Tests used:
isolated rat uterus = assay type: cell-based; conditions: for pA2 /RUT: activity class / pA2 /RUT: agonist potency as percent of BK potency: isolated rat uterus; for pA2 /RUT: activity class: not quantitated
Outline: (§1)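 Antagonism of bradykinin-induced contraction in isolated rat uterus (natural or induced estrus) and guinea pig ileum. Antagonist preincubated 30 s before a double-ED50 bradykinin dose, with the dose raised until the response fell to that of a single ED50. pA2 is the negative log molar antagonist concentration achieving this (Schild method).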

[1] = test system: isolated guinea pig ileum; assay type: cell-based; set-up: pA2 /GPI: activity class: scale not given here; conditions: for pA2 /GPI: activity class / pA2 /GPI: agonist potency as percent of BK potency: isolated guinea pig ileum; for pA2 /GPI: activity class: not quantitated
Outline: as §1

[2] = in vivo; cited from earlier work
pulmonary circulation = conditions: anesthetized rat; cited from earlier work
rat blood pressure = test: effects on blood pressure in the anesthetized rat (RBP), intraaortic and intravenous bolus; assay type: in vivo; set-up: RBP-IA: activity class / RBP-IV: activity class: scale not given here; conditions: for RBP-IA: activity class / RBP-IV: activity class / RBP-IA: agonist potency as percent of BK potency / RBP-IV: agonist potency as percent of BK potency: rat blood pressure; for RBP-IA: activity class / RBP-IA: agonist potency as percent of BK potency: intraaortic bolus; for RBP-IV: activity class / RBP-IV: agonist potency as percent of BK potency: intravenous bolus; for % DESTR (metabolic breakdown of BK-like agonists in RBP assay): relative to BK = 100%
Experimental: The in vivo effects of bradykinin antagonists on blood pressure in the anesthetized rat are determined according to the assay described by Roblero, Ryan and Stewart (Res. Commun. Pathol. Pharmacol. 6:207, 1973). The antagonists also produce inhibition of the bradykinin response when injected as a bolus admixture of bradykinin plus antagonist by either the ia or iv route of administration.

| Molecule | pA2 /RUT: activity class (isolated rat uterus) | pA2 /GPI: activity class [1] | RBP-IA: activity class (rat blood pressure) | RBP-IV: activity class (rat blood pressure) | pA2 /RUT: agonist potency as percent of BK potency (isolated rat uterus) [%] | pA2 /GPI: agonist potency as percent of BK potency [1] [%] | RBP-IA: agonist potency as percent of BK potency (rat blood pressure) [%] | RBP-IV: agonist potency as percent of BK potency (rat blood pressure) [%] | % DESTR (metabolic breakdown of BK-like agonists in RBP assay) (rat blood pressure) [%] | further results |
| --- | --- | --- | --- | --- | --- | --- | --- | --- | --- | --- |
| RPPGFSPFR [bradykinin, Arg-Pro-Pro-Gly-Phe-Ser-Pro-Phe-Arg] |  |  |  |  |  |  |  |  |  | pD2 value (negative log of dose causing half maximal contraction) (isolated rat uterus; rat uterus): 7.9; pD2 value (negative log of dose causing half maximal contraction) ([1]; guinea pig ileum): 7.4; half life in the systemic circulation [2]: less than 30 seconds; destruction on a single passage through the pulmonary circulation (pulmonary circulation): 98-99% |
| CC(=O)N[C@@H](CCCNC(=N)N)C(=O)N1CCC[C@H]1C(=O)N1CCC[C@H]1C(=O)NCC(=O)N[C@@H](Cc1cccs1)C(=O)N[C@@H](CO)C(=O)N[C@H](Cc1ccccc1)C(=O)N[C@@H](Cc1cccs1)C(=O)N[C@H](CCCNC(=N)N)C(=O)O [Example 42, Ac-Arg-Pro-Pro-Gly-Thi-Ser-DPhe^7 -Thi-DArg] (Ac-RPPG[2Thi]S[dF][2Thi][dR]-OH) | 0 | 0 | 0 | 0 |  |  |  |  |  |  |
| N=C(N)NCCC[C@H](NC(=O)[C@H](Cc1ccccc1)NC(=O)[C@@H](Cc1cccs1)NC(=O)[C@H](CO)NC(=O)[C@H](Cc1ccccc1)NC(=O)CNC(=O)[C@@H]1CCCN1C(=O)[C@@H]1CCCN1C(=O)[C@H](N)Cc1cccs1)C(=O)O [Example 33, DThi-Pro-Pro-Gly-Phe-Ser-DThi-Phe-Arg] (H-[d2Thi]PPGFS[d2Thi]FR-OH) | 0 | 0 | 0 | 0 |  |  |  |  |  |  |
| [dK]KRPPGFSPRIY [Example 62] |  |  |  |  | 5 | 1 | 5 | 165 | 0 |  |
| CC[C@H](C)[C@H](NC(=O)[C@H](CCCNC(=N)N)NC(=O)[C@H](Cc1ccccc1)NC(=O)[C@@H]1CCCN1C(=O)[C@H](CO)NC(=O)[C@H](Cc1ccccc1)NC(=O)CNC(=O)[C@@H]1CCCN1C(=O)[C@@H]1CCCN1C(=O)[C@H](CCCNC(=N)N)NC(=O)[C@H](CCCCN)NC(=O)[C@@H](N)CCCCN)C(=O)N[C@@H](Cc1ccc(O)cc1)C(=O)O [Example 61, Lys-Lys-Arg-Pro-Pro-Gly-Phe-Ser-Pro-Phe-Arg-Ile-Tyr] |  |  |  |  | 18 | 21 | 9 | 497 | 0 |  |
| CC[C@H](C)[C@H](NC(=O)[C@H](CCCNC(=N)N)NC(=O)[C@H](Cc1ccccc1)NC(=O)[C@@H]1CCCN1C(=O)[C@H](CO)NC(=O)[C@H](Cc1ccccc1)NC(=O)CNC(=O)[C@@H]1CCCN1C(=O)[C@@H]1CCCN1C(=O)[C@H](CCCNC(=N)N)NC(=O)[C@H](N)CCCNC(=N)N)C(=O)N[C@@H](Cc1ccc(O)cc1)C(=O)O [Example 60, DArg-Arg-Pro-Pro-Gly-Phe-Ser-Pro-Phe-Arg-Ile-Tyr] (H-[dR]RPPGFSPFRIY-OH) |  |  |  |  | 25 | 34 | 12 | 189 | 47 |  |
| N=C(N)NCCC[C@@H](N)C(=O)N[C@H](Cc1cccs1)C(=O)N1CCC[C@H]1C(=O)N1CCC[C@H]1C(=O)NCC(=O)N[C@@H](Cc1ccccc1)C(=O)N[C@@H](CO)C(=O)N[C@H](Cc1cccs1)C(=O)N[C@@H](Cc1ccccc1)C(=O)N[C@@H](CCCNC(=N)N)C(=O)O [Example 35, DArg-DThi-Pro-Pro-Gly-Phe-Ser-DThi-Phe-Arg] (H-[dR][d2Thi]PPGFS[d2Thi]FR-OH) | 0 | 0 | 0 | 0 |  |  |  |  |  |  |
